In ChEMBL document CHEMBL3885881, “DrugMatrix”:

Organism: Rattus norvegicus
Experiment: DrugMatrix - Regimen: Daily Repeat
Assay type: toxicity, organism-based, Sprague-Dawley
Parameters: regimen Daily Repeat, gender Male, age 6-8 weeks
Settings: in vivo, po, route oral GAVAGE, vehicle 100 % WATER; for ABSOLUTE BASOPHIL / ABSOLUTE EOSINOPHIL / ABSOLUTE LYMPHOCYTE / ABSOLUTE MONOCYTE / ABSOLUTE SEGMENTED NEUTROPHIL / BASOPHIL / EOSINOPHIL / ERYTHROCYTE COUNT / HEMATOCRIT / HEMOGLOBIN / LEUKOCYTE COUNT / LYMPHOCYTE / MEAN CORPUSCULAR HEMOGLOBIN / MEAN CORPUSCULAR HEMOGLOBIN CONCENTRATION / MONOCYTE / NEUTROPHIL / NUCLEATED RED BLOOD CELLS / PLATELET COUNT: tissue Blood; for ALANINE AMINOTRANSFERASE / ALBUMIN / ALKALINE PHOSPHATASE / BLOOD UREA NITROGEN / CARBON DIOXIDE / CHLORIDE / CHOLESTEROL / CREATINE PHOSPHOKINASE / CREATININE / GLUCOSE / LACTATE DEHYDROGENASE / LIPASE / PHOSPHORUS / POTASSIUM / SODIUM / TOTAL BILIRUBIN / TOTAL PROTEIN / URIC ACID: tissue Plasma
[1] = 0 mg/kg, 72 h, dose level Control, time 3 day
[2] = 0 mg/kg, 120 h, dose level Control, time 5 day
[3] = 15 mg/kg, 72 h, dose level Low, time 3 day

## Cc1ccc(NC(=O)c2ccc(CN3CCN(C)CC3)cc2)cc1Nc1nccc(-c2cccnc2)n1 [IMATINIB]
[1]
  ABSOLUTE BASOPHIL: 0 CELLS/uL
  ABSOLUTE EOSINOPHIL: 151.33 CELLS/uL
  ABSOLUTE LYMPHOCYTE: 10599.5 CELLS/uL
  ABSOLUTE MONOCYTE: 109.5 CELLS/uL
  ABSOLUTE SEGMENTED NEUTROPHIL: 1139.67 CELLS/uL
  BASOPHIL: 0%
  EOSINOPHIL: 0.83%
  ERYTHROCYTE COUNT: 5.54 x10E6/uL
  HEMATOCRIT: 35.35%
  HEMOGLOBIN: 13.22 G/DL
  LEUKOCYTE COUNT: 12 x10E3/uL
  LYMPHOCYTE: 89%
  MEAN CORPUSCULAR HEMOGLOBIN: 23.88 pg
  MEAN CORPUSCULAR HEMOGLOBIN CONCENTRATION: 37.4 G/DL
  MONOCYTE: 1%
  NEUTROPHIL: 9.17%
  NUCLEATED RED BLOOD CELLS: 0 /100WBC
  PLATELET COUNT: 1333.33 x10E3/uL
  ALANINE AMINOTRANSFERASE: 53.17 u/L
  ALBUMIN: 4.32 G/DL
  ALKALINE PHOSPHATASE: 404.33 u/L
  BLOOD UREA NITROGEN: 15.67 mg/dL
  CARBON DIOXIDE: 27.33 mmol/L
  CHLORIDE: 101.83 MEQ/L
  CHOLESTEROL: 68.67 mg/dL
  CREATINE PHOSPHOKINASE: 276.17 u/L
  CREATININE: 0.18 mg/dL
  GLUCOSE: 163.5 mg/dL
  LACTATE DEHYDROGENASE: 144.67 u/L
  LIPASE: 8.83 u/L
  PHOSPHORUS: 11.72 mg/dL
  POTASSIUM: 5.99 MEQ/L
  SODIUM: 143.57 MEQ/L
  TOTAL BILIRUBIN: 0.2 mg/dL
  TOTAL PROTEIN: 6.1 G/DL
  URIC ACID: 1.38 mg/dL
[2]
  ABSOLUTE BASOPHIL: 0 CELLS/uL
  ABSOLUTE EOSINOPHIL: 248.67 CELLS/uL
  ABSOLUTE LYMPHOCYTE: 12977.83 CELLS/uL
  ABSOLUTE MONOCYTE: 19.67 CELLS/uL
  ABSOLUTE SEGMENTED NEUTROPHIL: 1137.17 CELLS/uL
  BASOPHIL: 0%
  EOSINOPHIL: 1.67%
  ERYTHROCYTE COUNT: 5.82 x10E6/uL
  HEMATOCRIT: 36.35%
  HEMOGLOBIN: 13.58 G/DL
  LEUKOCYTE COUNT: 14.38 x10E3/uL
  LYMPHOCYTE: 90.5%
  MEAN CORPUSCULAR HEMOGLOBIN: 23.32 pg
  MEAN CORPUSCULAR HEMOGLOBIN CONCENTRATION: 37.42 G/DL
  MONOCYTE: 0.17%
  NEUTROPHIL: 7.67%
  NUCLEATED RED BLOOD CELLS: 0 /100WBC
  PLATELET COUNT: 1337.67 x10E3/uL
  ALANINE AMINOTRANSFERASE: 48.5 u/L
  ALBUMIN: 4.32 G/DL
  ALKALINE PHOSPHATASE: 354.33 u/L
  BLOOD UREA NITROGEN: 16 mg/dL
  CARBON DIOXIDE: 27.33 mmol/L
  CHLORIDE: 100.33 MEQ/L
  CHOLESTEROL: 68 mg/dL
  CREATINE PHOSPHOKINASE: 325.17 u/L
  CREATININE: 0.23 mg/dL
  GLUCOSE: 172 mg/dL
  LACTATE DEHYDROGENASE: 254.83 u/L
  LIPASE: 8.33 u/L
  PHOSPHORUS: 12.17 mg/dL
  POTASSIUM: 6.28 MEQ/L
  SODIUM: 143.57 MEQ/L
  TOTAL BILIRUBIN: 0.18 mg/dL
  TOTAL PROTEIN: 6.12 G/DL
  URIC ACID: 1.78 mg/dL
[3]
  ABSOLUTE BASOPHIL: 0 CELLS/uL
  ABSOLUTE EOSINOPHIL: 119.67 CELLS/uL
  ABSOLUTE LYMPHOCYTE: 6343 CELLS/uL
  ABSOLUTE MONOCYTE: 102.67 CELLS/uL
  ABSOLUTE SEGMENTED NEUTROPHIL: 568 CELLS/uL
  BASOPHIL: 0%
  EOSINOPHIL: 1.67%
  ERYTHROCYTE COUNT: 5.21 x10E6/uL
  HEMATOCRIT: 33.27%
  HEMOGLOBIN: 12.53 G/DL
  LEUKOCYTE COUNT: 7.13 x10E3/uL
  LYMPHOCYTE: 89.33%
  MEAN CORPUSCULAR HEMOGLOBIN: 24.03 pg
  MEAN CORPUSCULAR HEMOGLOBIN CONCENTRATION: 37.7 G/DL
  MONOCYTE: 1.33%
  NEUTROPHIL: 7.67%
  NUCLEATED RED BLOOD CELLS: 0 /100WBC
  PLATELET COUNT: 1102.33 x10E3/uL
  ALANINE AMINOTRANSFERASE: 49.67 u/L
  ALBUMIN: 4.23 G/DL
  ALKALINE PHOSPHATASE: 362.67 u/L
  BLOOD UREA NITROGEN: 15.33 mg/dL
  CARBON DIOXIDE: 28.33 mmol/L
  CHLORIDE: 102 MEQ/L
  CHOLESTEROL: 64.67 mg/dL
  CREATINE PHOSPHOKINASE: 198.67 u/L
  CREATININE: 0.21 mg/dL
  GLUCOSE: 165 mg/dL
  LACTATE DEHYDROGENASE: 128.33 u/L
  LIPASE: 8 u/L
  PHOSPHORUS: 11 mg/dL
  POTASSIUM: 5.66 MEQ/L
  SODIUM: 144.5 MEQ/L
  TOTAL BILIRUBIN: 0.2 mg/dL
  TOTAL PROTEIN: 6.03 G/DL
  URIC ACID: 0.97 mg/dL
